From patent US20100105768A1, “MOLD-INHIBITING METHOD AND COMPOSITION” (priority 2008, published 2010)

Assays:
mold/stain fungi = assay: Dip treated fresh cut white pine blocks in sealed bags, visual mold and stain growth rating (Example 5); type: cell-based; settings: 1% dip solution; for Visual evaluation Week 1 / Visual evaluation Week 2 / Visual evaluation Week 3 / Visual evaluation Week 4 / Visual evaluation Week 5 / Visual evaluation Week 6 / Visual evaluation Week 8: one minute, white pine blocks, no inoculation; for Efficacy against mold/stain fungi (in words): 8 weeks
Source text: Fresh cut white pine blocks (7.6×6.35×3.8 cm^3) were dipped in the prepared test formulation for one minute. The individual dipped wood block was placed in a plastic sandwich bag and the plastic bag was sealed to retain the moisture of the test wood blocks. No mold or stain fungi were inoculated on the test blocks. […] The test was completed in 8 weeks.

A. niger and P. citrinum = assay: Visual mold growth rating on gypsum cuboids placed on inoculated Sabouraud's Dextrose Agar (Example 2); type: cell-based; settings: for Visual evaluation Week 1 / Visual evaluation Week 2 / Visual evaluation Week 3 / Visual evaluation Week 4: 26° C., 70% relative humidity
Source text: Gypsum cuboids (30×40×25 mm^3) were made with the addition of the following formulations: • Sodium dehydroacetic acid (Na-DHA): 2500 ppm and 5000 ppm. • Carboquat® 250T ^3: 2500 ppm and 5000 ppm. • Carboquat® 250T/DHA 10:4 (wt./wt.): 2500 ppm and 5000 ppm. • ^3 Carboquat® 250T is an essentially aqueous solution containing approx. 50% of a mixture of carbonate and bicarbonate of didecyldimethylammonium. Carboquat® 250T is available from Lonza Inc., Allendale N.J.
Glass containers with Sabouraud's Dextrose Agar (SDA) on the bottom were prepared. Freshly-made spore suspensions of A. niger and P. citrinum were spread on the surface of SDA. The gypsum cuboids were air-dried and then placed on the top of the inoculated SDA. The containers were covered by aluminum foil and placed in an incubator with pre-set temperature of 26° C. and relative humidity of 70%. The test was completed at 4 weeks. Visual observation of mold growth on the gypsum cuboids was recorded weekly using the same rating system as in Example 1.

Compound: C/C=C/C=C/C(=O)[O-].[Na+] [Na-Sorbate]
- Visual evaluation Week 1 (mold/stain fungi): 2 (Medium mold growth (6-25% mold coverage))
- Visual evaluation Week 2 (mold/stain fungi): 4 (Severe mold growth (>50% mold coverage))
- Visual evaluation Week 3 (mold/stain fungi): 4 (Severe mold growth (>50% mold coverage))
- Visual evaluation Week 4 (mold/stain fungi): 4 (Severe mold growth (>50% mold coverage))
- Visual evaluation Week 5 (mold/stain fungi): 4 (Severe mold growth (>50% mold coverage))
- Visual evaluation Week 6 (mold/stain fungi): 4 (Severe mold growth (>50% mold coverage))
- Visual evaluation Week 8 (mold/stain fungi): 4 (Severe mold growth (>50% mold coverage))
- Efficacy against mold/stain fungi (in words) (mold/stain fungi): no efficacy

Compound: CC(=O)c1c([O-])cc(C)oc1=O.[Na+] [Na-DHA, Sodium dehydroacetic acid]
- Visual evaluation Week 1 (A. niger and P. citrinum; 2500 ppm in gypsum cuboid): 0
- Visual evaluation Week 2 (A. niger and P. citrinum; 2500 ppm in gypsum cuboid): 2 (Medium mold growth (6-25% mold coverage))
- Visual evaluation Week 3 (A. niger and P. citrinum; 2500 ppm in gypsum cuboid): 3 (Heavy mold growth (26-50% mold coverage))
- Visual evaluation Week 4 (A. niger and P. citrinum; 2500 ppm in gypsum cuboid): 3 (Heavy mold growth (26-50% mold coverage))
- Mold growth on gypsum cuboids (in words) (A. niger and P. citrinum; 5000 ppm): no mold growth
- Visual evaluation Week 1 (A. niger and P. citrinum; 5000 ppm in gypsum cuboid): 0
- Visual evaluation Week 2 (A. niger and P. citrinum; 5000 ppm in gypsum cuboid): 0
- Visual evaluation Week 3 (A. niger and P. citrinum; 5000 ppm in gypsum cuboid): 0
- Visual evaluation Week 4 (A. niger and P. citrinum; 5000 ppm in gypsum cuboid): 0
- Visual evaluation Week 1 (mold/stain fungi): 0
- Visual evaluation Week 2 (mold/stain fungi): 0
- Visual evaluation Week 3 (mold/stain fungi): 0
- Visual evaluation Week 4 (mold/stain fungi): 0
- Visual evaluation Week 5 (mold/stain fungi): 1 (Slight mold growth (<5% mold coverage))
- Visual evaluation Week 6 (mold/stain fungi): 1 (Slight mold growth (<5% mold coverage))
- Visual evaluation Week 8 (mold/stain fungi): 2 (Medium mold growth (6-25% mold coverage))
- Efficacy against mold/stain fungi (in words) (mold/stain fungi): strong efficacy

Compound: O=C([O-])c1ccccc1.[Na+] [Na-Benzoate]
- Visual evaluation Week 1 (mold/stain fungi): 2 (Medium mold growth (6-25% mold coverage))
- Visual evaluation Week 2 (mold/stain fungi): 4 (Severe mold growth (>50% mold coverage))
- Visual evaluation Week 3 (mold/stain fungi): 4 (Severe mold growth (>50% mold coverage))
- Visual evaluation Week 4 (mold/stain fungi): 4 (Severe mold growth (>50% mold coverage))
- Visual evaluation Week 5 (mold/stain fungi): 4 (Severe mold growth (>50% mold coverage))
- Visual evaluation Week 6 (mold/stain fungi): 4 (Severe mold growth (>50% mold coverage))
- Visual evaluation Week 8 (mold/stain fungi): 4 (Severe mold growth (>50% mold coverage))
- Efficacy against mold/stain fungi (in words) (mold/stain fungi): no efficacy
